According to publication PMC8018184, “Evaluation of the Pharmacophoric Role of the O–O Bond in Synthetic Antileishmanial Compounds: Comparison between 1,2-Dioxanes and Tetrahydropyrans” (Journal of Medicinal Chemistry, 2020):
Read-outs that look alike come from different tables or passages of the source.

Assays:
[1] = Cytotoxicity test on Vero cells (alamarBlue); type: cell-based, African green monkey
Method: (§1) Vero cells (kidney of African green monkey epithelial cell line) were cultured at 37 °C in the MEM liquid medium supplemented with 10% FBS (EuroClone SpA), 1% levoglutamine (EuroClone SpA), and 1% penicillin–streptomycin (EuroClone SpA). THP-1 cells (human leukemia monocytic cell line) were cultured at 37 °C in the RPMI 1640 (EuroClone SpA) liquid medium supplemented with 10% FBS (EuroClone SpA), 1% levoglutamine (EuroClone SpA), 1% penicillin–streptomycin, and mercaptoethanol (Gibco) 50 μM.
(§2) The cytotoxicity of the compounds was determined using mammalian kidney epithelial cells (Vero cell line) and human acute monocytic leukemia cell line (THP-1). Cells were seeded (10^5 cells mL^–1) on 96-well plates with the complete MEM medium and incubated with test compounds at 37 °C in a 5% CO2 incubator. After 72 h of incubation, 20 μL of the alamarBlue reagent was added to each well and incubated at 37 °C for 24 h. Reduction of resazurin to resorufin was evaluated after 24 h by absorbance measurement at the Multiskan ascent plate reader (Thermo Fisher Scientific Inc.,) at 550 and 630 nm. […] Each experiment was performed in duplicate.

[2] = test system: intramacrophage amastigotes of L. donovani; assay: Amastigote growth inhibition assay in infected THP-1 cells (Giemsa, infectivity index); type: cell-based, Leishmania donovani; conditions: for IC50: Leishmania donovani, intracellular amastigotes in THP-1, 72 h, read-out: IC50 against amastigotes of L. donovani
Method: To evaluate the efficacy of the compounds on the intracellular form of L. donovani, human acute monocytic leukemia cell line (THP-1) was infected with L. donovani promastigotes. Cells were harvested and seeded in a 96-well plate (10^5 cells mL^–1) in the complete RPMI 1640 medium, and PMA (0.1 μM, Cayman Chemical Company, Ann Arbor, Michigan, USA) was added for obtaining maturation and cell adherence. Cells were incubated at 37 °C in a 5% CO2 incubator. After 48 h, the medium was replaced with the fresh medium containing stationary-phase promastigotes that were then phagocyted by monocytic cells and transformed into intracellular amastigotes. After 24 h of incubation, newly synthesized compounds were added and the plates were incubated at 37 °C in a 5% CO2 incubator for 72 h. After incubation, wells were washed, fixed, and stained with Giemsa. Staining was detected using a Nikon Eclipse E200 light microscope (Nikon, Tokyo, Japan). The infectivity index (% of infected macrophages × average number of amastigotes per macrophage) was determined by counting at least 100 cells in duplicate cultures.

[3] = test system: L. donovani promastigotes (MHOM/NP/02/BPK282/0cl4); assay: Promastigote growth inhibition assay (alamarBlue); type: cell-based; conditions: Leishmania donovani, HOMEM with 10% FBS
[4] = Cytotoxicity test on THP-1 cells (alamarBlue); type: cell-based; conditions: human, THP-1 cells (acute monocytic leukemia cell line); CSV supplement; read-out: CC50 against human acute monocytic leukemia cell line (THP-1)
Method: as §1, §2
Cytotoxicity in THP-1 cell line
We performed additional cytotoxicity tests employing THP-1 cell line. We also calculated the
corresponding selectivity indexes, as the ratio between CC50 of THP-1 cell line and IC50 on amastigotes
THP-1 cells than on VERO cells; thus showing a not significant variance of selectivity index.
Table S3. Inhibitory activity of tetrahydropyrans 3 and endoperoxides 2 against amastigotes of L.
donovani, cytotoxicity in human acute monocytic leukemia cell line (THP-1) and selectivity index (SI).
Tetrahydropyran IC50 CC50 Endoperoxide IC50 CC50
a (µM)b (µM)c a (µM)b (µM)c
a Compounds tested as racemates. b IC50 represents the concentration of a compound that causes 50% growth inhibition.
Results represent the mean (± standard deviation, SD) of three independent experiments performed in duplicate. c CC50
represents 50% cytotoxic concentration on THP-1 cells. d Selectivity index (SI) = CC50/IC50. […]

[5] = test system: L. donovani promastigotes; assay: Promastigote growth inhibition in the presence of an iron chelator (DFO or DFP), isobologram; type: cell-based, Leishmania donovani; conditions: for Interaction with the iron chelator DFO (isobologram, ΣFIC): synergism <0.5, antagonism >4.0, else additivity
Method: At first, we determined IC50 and CC50 values of the iron chelator DFO (187 and >400 μM, respectively). Then, the effect of the iron chelator presence on the bioactivity of the two compounds was studied by coincubating 2a and 3a with DFO at different concentrations. The variation of IC50 of the compounds in relation to the different doses of DFO was determined by the alamarBlue assay (Table 3), and the isobole technique was employed to depict the interactions of 2a and 3a with DFO (Figure 6).
The isobole technique was used for depicting synergistic or antagonistic interaction between the iron chelator and the two compounds on the parasite growth (Figure 6). Combinations are expressed as the sum of the fractional inhibitory concentrations (ΣFIC), and FIC values are defined as synergism (<0.5), antagonism (>4.0), and additivity (no interaction). The strength of synergism (or antagonism) is indicated by the degree of deviation from the line of additivity.
[…]. Each compound was added using a concentration range including the IC50 of each compound. Each experiment was performed in duplicate. The viability of the parasites was determined by the alamarBlue assay. The fractional inhibitory concentration (FIC; FIC = IC50 of the drug in the combination/IC50 of the drug when tested alone) of each compound was calculated and plotted as an isobologram.

[6] = test system: L. donovani promastigotes (MHOM/NP/02/BPK282/0cl4); assay: Promastigote growth inhibition assay (alamarBlue); type: cell-based, Leishmania donovani; conditions: for IC50: Leishmania donovani; for Selectivity index (SI) = CC50/IC50: Vero CC50 / IC50 on promastigotes; for Activity against promastigotes under the bioassay conditions: 40 μM compound
Method: The bioactivity of the new tetrahydropyrans 3 was initially evaluated against the extracellular promastigote forms of L. donovani (MHOM/NP/02/BPK282/0cl4) as the reference strain, indicative of the leishmaniasis in the Old World. The results were expressed as IC50, i.e., the concentration of the product required to inhibit the parasite growth by 50%. When a compound could inhibit the promastigote growth, its cytotoxicity was also evaluated on Vero cells (Table 1) and on THP-1 cells (see the Supporting Information, Table S3) and the corresponding selectivity indexes (SIs) were calculated. The performance of each tetrahydropyran 3 was compared with that of the corresponding endoperoxide 2 (Table 1).
Promastigotes of a L. donovani reference strain (MHOM/NP/02/BPK282/0cl4) were maintained at 26 °C in a liquid custom-made medium, HOMEM Cat. no: 1140-082 (Gibco Thermo Fisher Scientific Inc., Waltham, USA), complete composition: S-MEM (Eagle) 1 × 1 liter pack, glucose (1–2 g), sodium bicarbonate (0.3 g), sodium pyruvate (0.11 g), p-aminobenzoic acid (1 mg), biotin (0.1 mg), HEPES (4.77–5.96 g), MEM amino acids (10 mL), MEM nonessential amino acids (10 mL), pH 7.5–7.6, supplemented with 20% fetal bovine serum (FBS, EuroClone SpA, Milan, Italy)[123] and 1% penicillin–streptomycin (EuroClone SpA).
To evaluate the efficacy of the compounds on the extracellular forms of L. donovani, promastigotes in their late log/stationary phase were seeded with the complete HOMEM medium at 10^6 cells mL^–1 in 96-well plates and incubated with tested compounds at a range concentration of 600–1.6 μM in a 26 °C incubator for 72 h. The antileishmanial drug amphotericin B was used as the positive control, and untreated promastigotes were the negative control. Each experiment was performed in duplicate. Stock solution of the compounds was 8 mM in DMSO. […] The alamarBlue assay includes a colorimetric growth indicator based on detection of metabolic activity. Specifically, the system incorporates an oxidation–reduction (REDOX) indicator that changes color in response to chemical reduction of the growth medium resulting from cell growth. The method monitors the reducing environment of proliferating cells; the cell-permeable resazurin is added (nonfluorescent form, blue color) and, upon entering cells, is reduced to resorufin (fluorescent form, red color) as a result of cellular metabolic activity. Evaluation was performed by adding 20 μL of alamarBlue and incubating at 26 °C for 24 h. The reducing environment was evaluated after 24 h by absorbance measurement at the Multiskan ascent plate reader (Thermo Fisher Scientific Inc.) at 550 and 630 nm.

[7] = test system: promastigotes of Leishmania donovani strains; parameters: method as in earlier work; conditions: Figure 1; read-out: IC50 on promastigotes of L. donovani strains; cited from earlier work
[8] = chlorocebus sabaeus, Vero cells (kidney epithelial cell line), 72 h, alamarBlue, read-out: CC50 (50% cytotoxic concentration) on Vero cells
[9] = THP-1 CC50 / IC50 on amastigotes
[10] = Vero CC50 / IC50 on amastigotes
[11] = 72 h, alamarBlue, HOMEM 20% FBS, compounds as racemates, read-out: IC50 (concentration causing 50% growth inhibition) against promastigotes of L. donovani

IC50 [2] [µM] | Structure (SMILES) | CC50 at 72 h [1, 8] [µM] | Selectivity index (SI) = CC50/IC50 [2, 9] | Selectivity index (SI) = CC50/IC50 [2, 10] | CC50 at 72 h [4] [µM] | IC50 [6, 11] [µM] | Selectivity index (SI) = CC50/IC50 [6] | also measured
3.2 ± 0.9 | CO[C@]1(C)OCC(c2ccccc2)(c2ccccc2)C[C@@H]1CNCCCn1ccnc1 (racemic) [3b, 3-(1H-Imidazol-1-yl)-N-((2-methoxy-2-methyl-5,5-diphenyltetrahydro-2H-pyran-3-yl)methyl)propan-1-amine] | 42.3 ± 3.2 | 15.6 | 13.2 | 50 | 5.8 ± 0.9 | 7.3 | IC50 [3]: 3.2 µM; Interaction with the iron chelator DFO (isobologram, ΣFIC) [5]: additive effects
– | CO[C@]1(C)OCC(C)(C)C[C@@H]1CNCCCn1ccnc1 (racemic) [3c, 3-(1H-Imidazol-1-yl)-N-((2-methoxy-2,5,5-trimethyltetrahydro-2H-pyran-3-yl)methyl)propan-1-amine] | – | – | – | – | > 40 | – | Activity against promastigotes under the bioassay conditions [6]: inactive
2.8 ± 0.7 | CO[C@]1(C)OCC(c2ccccc2)(c2ccccc2)C[C@@H]1COCc1cn(CCC[P+](c2ccccc2)(c2ccccc2)c2ccccc2)nn1.[Br-] (racemic) [3d, (3-(4-(((2-Methoxy-2-methyl-5,5-diphenyltetrahydro-2H-pyran-3-yl)methoxy)methyl)-1H-1,2,3-triazol-1-yl)propyl)triphenylphosphonium bromide] | 92 ± 8.7 | 22.9 | 32.8 | 64.1 | 18 ± 3 | 5.1 | –
– | CCCCC1(CCCC)CO[C@@](C)(OC)[C@@H](CNCCCCNc2c3ccc(Cl)cc3nc3ccc(OC)cc23)C1 (racemic) [3e, N^1-(6-Chloro-2-methoxyacridin-9-yl)-N^4-((5,5-dibutyl-2-methoxy-2-methyltetrahydro-2H-pyran-3-yl)methyl)butane-1,4-diamine] | 1.2 | – | – | – | 0.9 | 1.3 | –
– | CO[C@]1(C)OOC(C)(C)C[C@@H]1CNCCCn1ccnc1 [2c] | – | – | – | – | > 40 | – | Activity against promastigotes under the bioassay conditions [6]: inactive
– | CCCCC1(CCCC)C[C@H](CNCCCCNc2c3ccc(Cl)cc3nc3ccc(OC)cc23)[C@](C)(OC)OO1 [2e, N^1-(6-Chloro-2-methoxyacridin-9-yl)-N^4-((6,6-dibutyl-3-methoxy-3-methyl-1,2-dioxan-4-yl)methyl)butane-1,4-diamine] | 1.3 | – | – | – | 0.5 | 2.6 | –
– | CCCCC1(CCCC)C[C@H](CNCCCCNc2ccc([N+](=O)[O-])c3nonc23)[C@](C)(OC)OO1 [2f, N^1-((6,6-Dibutyl-3-methoxy-3-methyl-1,2-dioxan-4-yl)methyl)-N^4-(7-nitrobenzo[c][1,2,5]oxadiazol-4-yl)butane-1,4-diamine] | 12.1 | – | – | – | 11.4 | 1.1 | –
> 40 | C[C@H]1[C@H](OC(=O)CCC(=O)O)O[C@@H]2O[C@@]3(C)CC[C@H]4[C@H](C)CC[C@@H]1[C@@]24OO3 [Artesunate, reference compound] | – | – | – | – | > 40 | – | –
– | CC(=O)N(O)CCCCCNC(=O)CCC(=O)N(O)CCCCCNC(=O)CCC(=O)N(O)CCCCCN [DFO, desferrioxamine, reference compound] | – | – | – | – | – | – | CC50 at 72 h ([1]; cell line not given, read-out: CC50 of the iron chelator): > 400 µM; IC50 ([6]; 72 h, read-out: IC50 (concentration causing 50% growth inhibition) against promastigotes of L. donovani): 187 µM
– | Cc1c(O)c(=O)ccn1C [DFP, deferiprone, reference compound] | – | – | – | – | – | – | CC50 at 72 h ([1]; cell line not given, read-out: CC50 of the iron chelator DFP): 143 µM; IC50 ([6]; read-out: IC50 of the iron chelator DFP): 219 µM
– | CCCCCCCCCCCCCCCCOP(=O)([O-])OCC[N+](C)(C)C [Miltefosine] | – | – | – | – | – | – | IC50 [7]: 1.9 to 68.1 µM

Structure (SMILES) | IC50 [2] [µM] | CC50 at 72 h [1, 8] [µM] | Selectivity index (SI) = CC50/IC50 [2, 9] | Selectivity index (SI) = CC50/IC50 [2, 10] | CC50 at 72 h [4] [µM] | IC50 [6, 11] [µM] | Selectivity index (SI) = CC50/IC50 [6] | also measured
CO[C@]1(C)OOC(c2ccccc2)(c2ccccc2)C[C@@H]1CNCCCn1ccnc1 [2b] | 5 ± 1 | 49 ± 2.7 | 10.5 | 9.8 | 52.5 | 6.3 ± 1.1 | 7.7 | IC50 [3]: 1.2 µM; IC50 ([5]; Leishmania donovani, no DFO, read-out: IC50 against promastigotes, absence of DFO (Table S4)): 7.5 µM; Interaction with the iron chelator DFO (isobologram, ΣFIC) [5]: additive effects
Br.CO[C@]1(C)OOC(c2ccccc2)(c2ccccc2)C[C@@H]1COCc1cn(CCC[P+](c2ccccc2)(c2ccccc2)c2ccccc2)nn1 [2d] | 16.5 ± 1.5 | 238 ± 36.8 | 8.6 | 14.4 | 142 | 13.8 ± 2.2 | 17.3 | –
